{"source": "patent US20260139005A1", "about": "(priority 2022, published 2026)", "note": "Where a SMILES comes first, the peptide text is derived from it.", "data": [{"tested_on": "Fusarium graminearum", "settings": "not given", "values": [{"compound": "TKPCQSDKDCKKFACAAAAVPKCINGFCKCVR [NCR13_AlaV3]", "MIC (μM) Fusarium graminearum": "Inactive"}, {"compound": "TKPCQSDKDCAAAACRKPKVPKCINGFCKCVR [NCR13_AlaV2]", "MIC (μM) Fusarium graminearum": "Inactive"}]}, {"tested_on": "Fusarium graminearum", "settings": "48 h", "units": {"MIC (μM) Fusarium graminearum": "µM"}, "values": [{"compound": "CC[C@H](C)[C@H](NC(=O)[C@H](CS)NC(=O)[C@H](CCCCN)NC(=O)[C@@H]1CCCN1C(=O)[C@@H](NC(=O)[C@H](CCCCN)NC(=O)[C@@H]1CCCN1C(=O)[C@H](CCCCN)NC(=O)[C@H](CCCNC(=N)N)NC(=O)[C@H](CS)NC(=O)[C@H](C)NC(=O)[C@H](Cc1ccccc1)NC(=O)[C@H](CCCCN)NC(=O)[C@H](CCCCN)NC(=O)[C@H](CS)NC(=O)[C@H](C)NC(=O)[C@H](C)NC(=O)[C@H](C)NC(=O)[C@H](C)NC(=O)[C@H](C)NC(=O)[C@H](CS)NC(=O)[C@@H]1CCCN1C(=O)[C@H](CCCCN)NC(=O)[C@@H](N)[C@@H](C)O)C(C)C)C(=O)N[C@@H](CC(N)=O)C(=O)NCC(=O)N[C@@H](Cc1ccccc1)C(=O)N[C@@H](CS)C(=O)N[C@@H](CCCCN)C(=O)N[C@@H](CS)C(=O)N[C@H](C(=O)N[C@@H](CCCNC(=N)N)C(=O)O)C(C)C", "note": "[NCR13_AlaV1] (H-TKPCAAAAACKKFACRKPKVPKCINGFCKCVR-OH; N-terminus and C-terminus assumed)", "MIC (μM) Fusarium graminearum": 6}, {"compound": "CC[C@H](C)[C@H](NC(=O)[C@H](CS)NC(=O)[C@H](C)NC(=O)[C@H](C)NC(=O)[C@H](C)NC(=O)[C@H](CCCCN)NC(=O)[C@@H]1CCCN1C(=O)[C@H](CCCCN)NC(=O)[C@H](CCCNC(=N)N)NC(=O)[C@H](CS)NC(=O)[C@H](C)NC(=O)[C@H](Cc1ccccc1)NC(=O)[C@H](CCCCN)NC(=O)[C@H](CCCCN)NC(=O)[C@H](CS)NC(=O)[C@H](CC(=O)O)NC(=O)[C@H](CCCCN)NC(=O)[C@H](CC(=O)O)NC(=O)[C@H](CO)NC(=O)[C@H](CCC(N)=O)NC(=O)[C@H](CS)NC(=O)[C@@H]1CCCN1C(=O)[C@H](CCCCN)NC(=O)[C@@H](N)[C@@H](C)O)C(=O)N[C@@H](CC(N)=O)C(=O)NCC(=O)N[C@@H](Cc1ccccc1)C(=O)N[C@@H](CS)C(=O)N[C@@H](CCCCN)C(=O)N[C@@H](CS)C(=O)N[C@H](C(=O)N[C@@H](CCCNC(=N)N)C(=O)O)C(C)C", "note": "[NCR13_AlaV4] (H-TKPCQSDKDCKKFACRKPKAAACINGFCKCVR-OH; N-terminus and C-terminus assumed)", "MIC (μM) Fusarium graminearum": 12}, {"compound": "CC[C@H](C)[C@H](NC(=O)[C@H](CS)NC(=O)[C@H](CCCCN)NC(=O)[C@@H]1CCCN1C(=O)[C@@H](NC(=O)[C@H](CCCCN)NC(=O)[C@@H]1CCCN1C(=O)[C@H](CCCCN)NC(=O)[C@H](CCCNC(=N)N)NC(=O)[C@H](CS)NC(=O)[C@H](C)NC(=O)[C@H](Cc1ccccc1)NC(=O)[C@H](CCCCN)NC(=O)[C@H](CCCCN)NC(=O)[C@H](CS)NC(=O)[C@H](CC(=O)O)NC(=O)[C@H](CCCCN)NC(=O)[C@H](CC(=O)O)NC(=O)[C@H](CO)NC(=O)[C@H](CCC(N)=O)NC(=O)[C@H](CS)NC(=O)[C@@H]1CCCN1C(=O)[C@H](CCCCN)NC(=O)[C@@H](N)[C@@H](C)O)C(C)C)C(=O)N[C@@H](CC(N)=O)C(=O)NCC(=O)N[C@@H](Cc1ccccc1)C(=O)N[C@@H](CS)C(=O)N[C@@H](CCCCN)C(=O)N[C@@H](CS)C(=O)N[C@H](C(=O)N[C@@H](CCCNC(=N)N)C(=O)O)C(C)C", "note": "[NCR13, reference compound] (H-TKPCQSDKDCKKFACRKPKVPKCINGFCKCVR-OH; N-terminus and C-terminus assumed)", "MIC (μM) Fusarium graminearum": 6}, {"compound": "CC(C)[C@H](NC(=O)[C@H](CS)NC(=O)[C@H](CCCCN)NC(=O)[C@H](CS)NC(=O)[C@H](C)NC(=O)[C@H](C)NC(=O)[C@H](C)NC(=O)[C@H](C)NC(=O)[C@H](CS)NC(=O)[C@H](CCCCN)NC(=O)[C@@H]1CCCN1C(=O)[C@@H](NC(=O)[C@H](CCCCN)NC(=O)[C@@H]1CCCN1C(=O)[C@H](CCCCN)NC(=O)[C@H](CCCNC(=N)N)NC(=O)[C@H](CS)NC(=O)[C@H](C)NC(=O)[C@H](Cc1ccccc1)NC(=O)[C@H](CCCCN)NC(=O)[C@H](CCCCN)NC(=O)[C@H](CS)NC(=O)[C@H](CC(=O)O)NC(=O)[C@H](CCCCN)NC(=O)[C@H](CC(=O)O)NC(=O)[C@H](CO)NC(=O)[C@H](CCC(N)=O)NC(=O)[C@H](CS)NC(=O)[C@@H]1CCCN1C(=O)[C@H](CCCCN)NC(=O)[C@@H](N)[C@@H](C)O)C(C)C)C(=O)N[C@@H](CCCNC(=N)N)C(=O)O", "note": "[NCR13_AlaV5] (H-TKPCQSDKDCKKFACRKPKVPKCAAAACKCVR-OH; N-terminus and C-terminus assumed)", "MIC (μM) Fusarium graminearum": 6}]}]}
